Assays:
[1] = test system: patients with Dravet syndrome; assay: Open-label extension (OLE) study (Study 1503); type: in vivo, human; conditions: for median decrease in MCSF over the entire observation period compared to baseline: OLE interim analysis
Method: Table 7 presents additional analysis of seizure free intervals in the two placebo-controlled studies prior to the OLE. Inclusion criteria in both studies were for patients aged ≥2 years. Subgroup analysis was performed on patients between ≥2 to <6 years and on patients ≥6 years.
Patients (2-18 years old) entered a long-term, OLE study (Study 1503) after completing either Study 1 or Study 1504: Study 1 (14 wk; FFA: 0, 0.2, or 0.8 mg/kg/d; max, 30 mg/d in stiripentol [STP]-free AED regimens) or Study 1504 (15 wk; FFA: 0.5 mg/kg/d; max, 20 mg/d in AED+STP regimens). In 1503, all patients received 0.2 mg/kg/d FFA for 1 month; dosing was titrated to therapeutic effect thereafter.
A total of 42 of 158 (26.6%) patients who enrolled in the OLE were <6 years old at time of entry into the OLE study. The median baseline monthly convulsive seizure frequency (MCSF) prior to double-blind treatment was 10.7 seizures/month (range, 4.0 to 147.3). At the time of the OLE interim analysis, the median decrease in MCSF over the entire observation period compared to baseline was −76% (P<0.001) compared with −64% in the overall study population during the same time period.

[2] = test system: patients with Dravet syndrome; conditions: cited from earlier work
[3] = test system: patients with Dravet syndrome; assay: Study 1: Phase 3 randomized, double-blind, placebo-controlled study of ZX008 as adjunctive therapy (ZX008-1501/1502); type: in vivo, human; conditions: for mean (SD) number of non-convulsive seizures (all types) per 28 days: Baseline; for reduction from Baseline in non-convulsive seizure frequency: T+M Period; for mean (SD) non-convulsive seizure frequency per 28 days: end of T+M Period
Method: The first 119 subjects to be randomized in both identical studies combined were analyzed and reported as Study 1 (FIG. 1), covered by a Statistical Analysis Plan (SAP).
Primary and key secondary endpoints in the Study 1 SAP were pre-determined. All patients were treated twice per day over a period of 14 weeks using an oral syringe to administer the formulation. The treatment period included a two-week titration period and a 12-week maintenance period.
The initial results of Study 1 are outlined below. The randomized, double blind, placebo controlled, Phase 3 study enrolled 119 patients across sites in the United States, Canada, Europe and Australia. The median age of patients was 8 years, the mean age of patients was 9 years (range, 2-18 years) (FIG. 2).
Patients were titrated to their target dose over two weeks, and then remained at that fixed dose for 12 weeks. The mean baseline convulsive seizure frequency across the study groups was approximately 40 seizures per month. 110 (92%) patients completed the study (85% 0.8 mg/kg/day; 100% 0.2 mg/kg/day; 93% placebo).
The proportion of patients who achieved ≥75% seizure reductions, a secondary (non-key) efficacy measure, is also presented.
The mean number of convulsive seizure free days, defined as a day for which diary data are available and no convulsive seizures have been reported, was determined for each treatment group during the Baseline and T+M Periods. Using a parametric analysis, comparisons for the ZX008 groups to placebo were estimated from an ANCOVA model with treatment group (3 levels) and age group (<6 years, ≥6 years) as factors, log baseline number of convulsive seizure free days as a covariate and log convulsive seizure free days (Titration+Maintenance, or Maintenance Period) as response. The mean (SD) number of convulsive seizure free days per 28 days during the Baseline Period was 12.6 (7.68), 15.7 (6.80), and 14.6 (7.59) for the placebo, 0.2 and 0.8 mg/kg/day groups, respectively. […] The mean (SD) number of convulsive seizure free days for the 0.2 mg/kg/day group was 17.9 (8.04) days, which was numerically greater than placebo, but was not statistically significant (p=0.514). Similar results were obtained with a nonparametric analysis where the difference between the 0.8 mg/kg/day and placebo groups was statistically significant (p<0.001) while the difference between the 0.2 mg/kg/day and placebo groups was not (p=0.102).

[4] = long-term fenfluramine treatment

## CCNC(C)Cc1cccc(C(F)(F)F)c1 (racemic) [fenfluramine, 3-trifluoromethyl-N-ethylamphetamine]
[1]; Dravet patients 6 years of age or less
  reduction in MCSF: sustained, clinically meaningful reduction in MCSF
[1]; overall study population
  median decrease in MCSF over the entire observation period compared to baseline: −64%
[1]; patients <6 years old at entry
  median decrease in MCSF over the entire observation period compared to baseline: −76%
[1]; OLE, patients <6 years old
  most frequently reported AE's: pyrexia, nasopharyngitis, upper respiratory tract infections, and diarrhea
[2]; fenfluramine and valproate, average 0.34 mg/kg/day for between 1 and 22 years
  Seizure-free Patients: 66.6%
[2]; [4]
  heart valve defects by echocardiography: No clinically relevant defects were identified
  reduction in seizures: 75%
[2]; not only photosensitive or self-induced seizures
  incidence of all types of seizures: effectively reduced the incidence of all types of seizures
[3]; 0.2 mg/kg/day group
  mean (SD) number of non-convulsive seizures (all types) per 28 days: 193.6 (478.45) per 28 days
[3]; 0.2 mg/kg/day
  reduction from Baseline in non-convulsive seizure frequency: 9.7%
  mean (SD) non-convulsive seizure frequency per 28 days: 93.7 (219.69) per 28 days
[3]; 0.8 mg/kg/day group
  mean (SD) number of non-convulsive seizures (all types) per 28 days: 335.2 (758.58) per 28 days
[3]; 0.8 mg/kg/day
  reduction from Baseline in non-convulsive seizure frequency: 59.1%
  mean (SD) non-convulsive seizure frequency per 28 days: 127.9 (297.39) per 28 days
